Source: ChEMBL document CHEMBL1201862, “PubChem BioAssay data set” (2004)
Calls of active or inactive are those of the source.

Columns and labels:
[1] = cells; format: functional, cell-based
[2] = biological target: T1, Exodeoxyribonuclease V (Escherichia coli (strain K12), UniProt P04993+P07648+P08394); assay: RecBCD inhibition via phage-restricted bacterial growth – absorbance, V66 E. coli, mutant T4 phage, counter-screen for AddAB inhibitor project, dose response (AID 492957); format: functional, cell-based, Escherichia coli str. K-12 substr. MG1655
T1 sequence (P04993 whole entry): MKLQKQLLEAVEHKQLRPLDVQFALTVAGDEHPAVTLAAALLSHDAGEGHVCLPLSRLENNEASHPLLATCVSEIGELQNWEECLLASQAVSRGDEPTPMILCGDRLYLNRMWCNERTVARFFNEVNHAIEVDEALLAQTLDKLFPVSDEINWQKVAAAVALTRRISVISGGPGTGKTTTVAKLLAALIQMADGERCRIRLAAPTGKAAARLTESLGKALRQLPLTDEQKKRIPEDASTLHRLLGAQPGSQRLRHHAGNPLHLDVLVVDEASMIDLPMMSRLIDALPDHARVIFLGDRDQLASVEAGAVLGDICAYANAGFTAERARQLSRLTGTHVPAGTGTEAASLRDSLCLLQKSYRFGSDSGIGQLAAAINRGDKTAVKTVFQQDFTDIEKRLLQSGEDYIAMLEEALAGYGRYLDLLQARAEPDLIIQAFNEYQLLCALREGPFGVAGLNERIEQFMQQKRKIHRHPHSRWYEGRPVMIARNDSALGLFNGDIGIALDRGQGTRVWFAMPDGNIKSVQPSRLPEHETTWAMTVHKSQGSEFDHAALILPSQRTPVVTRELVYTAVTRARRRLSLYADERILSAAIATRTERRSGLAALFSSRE
T1 sequence (P07648 whole entry): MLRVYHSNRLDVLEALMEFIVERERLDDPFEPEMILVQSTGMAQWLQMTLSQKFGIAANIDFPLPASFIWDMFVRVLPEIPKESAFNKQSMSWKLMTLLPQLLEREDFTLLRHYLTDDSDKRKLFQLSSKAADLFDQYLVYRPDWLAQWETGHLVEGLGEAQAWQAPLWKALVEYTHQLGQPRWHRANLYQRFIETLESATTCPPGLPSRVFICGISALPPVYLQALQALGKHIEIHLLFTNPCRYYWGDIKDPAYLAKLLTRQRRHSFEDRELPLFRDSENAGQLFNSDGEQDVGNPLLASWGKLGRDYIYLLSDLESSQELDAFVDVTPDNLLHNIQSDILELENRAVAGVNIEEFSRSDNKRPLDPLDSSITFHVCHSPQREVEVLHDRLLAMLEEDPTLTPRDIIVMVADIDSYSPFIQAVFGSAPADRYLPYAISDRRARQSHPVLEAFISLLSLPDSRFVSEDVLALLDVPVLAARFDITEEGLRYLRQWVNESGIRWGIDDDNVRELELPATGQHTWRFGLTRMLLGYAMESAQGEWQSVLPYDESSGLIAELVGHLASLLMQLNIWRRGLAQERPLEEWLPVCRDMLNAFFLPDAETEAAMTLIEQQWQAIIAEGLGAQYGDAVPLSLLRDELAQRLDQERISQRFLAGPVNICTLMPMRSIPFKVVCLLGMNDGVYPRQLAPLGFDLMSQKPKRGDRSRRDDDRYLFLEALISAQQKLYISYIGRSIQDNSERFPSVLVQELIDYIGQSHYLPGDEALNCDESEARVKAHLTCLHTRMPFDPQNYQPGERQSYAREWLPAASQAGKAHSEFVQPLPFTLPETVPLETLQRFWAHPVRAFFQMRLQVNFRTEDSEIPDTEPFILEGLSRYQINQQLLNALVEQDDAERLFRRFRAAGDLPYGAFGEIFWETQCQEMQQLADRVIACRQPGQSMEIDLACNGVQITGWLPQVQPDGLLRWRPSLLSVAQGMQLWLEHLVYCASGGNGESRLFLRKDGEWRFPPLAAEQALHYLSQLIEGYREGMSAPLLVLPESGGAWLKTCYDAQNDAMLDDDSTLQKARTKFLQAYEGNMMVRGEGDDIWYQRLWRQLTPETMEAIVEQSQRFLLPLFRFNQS
T1 sequence (P08394 whole entry): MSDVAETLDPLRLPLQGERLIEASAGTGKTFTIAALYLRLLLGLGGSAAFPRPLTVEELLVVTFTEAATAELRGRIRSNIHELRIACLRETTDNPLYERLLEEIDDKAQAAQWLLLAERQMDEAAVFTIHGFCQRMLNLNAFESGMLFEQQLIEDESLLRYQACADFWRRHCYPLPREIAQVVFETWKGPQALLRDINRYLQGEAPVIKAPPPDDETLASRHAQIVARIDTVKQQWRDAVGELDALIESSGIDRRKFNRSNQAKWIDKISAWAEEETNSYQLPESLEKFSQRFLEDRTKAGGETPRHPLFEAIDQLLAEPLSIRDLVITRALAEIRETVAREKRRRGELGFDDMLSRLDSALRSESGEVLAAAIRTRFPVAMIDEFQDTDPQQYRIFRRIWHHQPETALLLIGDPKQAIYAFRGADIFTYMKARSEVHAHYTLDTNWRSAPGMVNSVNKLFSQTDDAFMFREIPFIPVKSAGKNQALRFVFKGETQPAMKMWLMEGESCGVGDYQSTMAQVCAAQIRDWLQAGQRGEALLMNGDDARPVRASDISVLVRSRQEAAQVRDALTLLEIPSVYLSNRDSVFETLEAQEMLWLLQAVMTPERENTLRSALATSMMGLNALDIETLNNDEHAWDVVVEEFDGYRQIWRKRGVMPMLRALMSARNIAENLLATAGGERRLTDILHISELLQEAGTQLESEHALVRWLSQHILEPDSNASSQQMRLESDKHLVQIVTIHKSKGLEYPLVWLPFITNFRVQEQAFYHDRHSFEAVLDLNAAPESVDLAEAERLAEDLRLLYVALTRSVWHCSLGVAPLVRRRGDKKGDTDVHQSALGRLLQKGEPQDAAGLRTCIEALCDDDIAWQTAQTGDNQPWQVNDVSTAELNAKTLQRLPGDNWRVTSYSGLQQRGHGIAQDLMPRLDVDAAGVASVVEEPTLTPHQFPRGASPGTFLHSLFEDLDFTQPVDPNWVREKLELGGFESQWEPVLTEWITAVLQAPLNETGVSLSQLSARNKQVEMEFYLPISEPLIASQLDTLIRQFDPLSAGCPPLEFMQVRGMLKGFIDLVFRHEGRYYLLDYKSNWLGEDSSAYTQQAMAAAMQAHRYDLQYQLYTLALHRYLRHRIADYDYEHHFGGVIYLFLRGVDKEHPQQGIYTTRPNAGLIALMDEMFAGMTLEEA

[3] = system: HeLa; assay: ATP-based viability loss in HeLa cells – cell-based, CellTiter-Glo luminescence, cherry-pick samples, cytotoxicity control for MITF activator project, dose response (AID 540259); format: functional; details: Homo sapiens
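Throughout, for EC50: proteasome chymotrypsin-like activity measured in U2OS cells; potency is for inhibition of proteasome activity.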

For `CC(=O)NC(c1ccc2ccccc2c1)c1ccc2cccnc2c1O` (stereo not drawn), the EC50 [1] was > 350 µM (not active) and the IC50 [2] was > 118 µM (inactive).

For `COc1ccc2c(c1)CCC(/C=N/c1ccc3c(c1)OCO3)=C2O`, the AC50 [3] was 48.4 µM (active).
